34 compounds from US20060004197A1, “Sulfonamide-based compounds as protein tyrosine kinase inhibitors” (priority 2004, published 2006) can be followed below.

For the first assay, the target named is T1, Recombinant human Src (Homo sapiens, UniProt P12931).
T1 construct: made in house; host or cells: baculovirus-insect cell system
T1 sequence (P12931 whole entry): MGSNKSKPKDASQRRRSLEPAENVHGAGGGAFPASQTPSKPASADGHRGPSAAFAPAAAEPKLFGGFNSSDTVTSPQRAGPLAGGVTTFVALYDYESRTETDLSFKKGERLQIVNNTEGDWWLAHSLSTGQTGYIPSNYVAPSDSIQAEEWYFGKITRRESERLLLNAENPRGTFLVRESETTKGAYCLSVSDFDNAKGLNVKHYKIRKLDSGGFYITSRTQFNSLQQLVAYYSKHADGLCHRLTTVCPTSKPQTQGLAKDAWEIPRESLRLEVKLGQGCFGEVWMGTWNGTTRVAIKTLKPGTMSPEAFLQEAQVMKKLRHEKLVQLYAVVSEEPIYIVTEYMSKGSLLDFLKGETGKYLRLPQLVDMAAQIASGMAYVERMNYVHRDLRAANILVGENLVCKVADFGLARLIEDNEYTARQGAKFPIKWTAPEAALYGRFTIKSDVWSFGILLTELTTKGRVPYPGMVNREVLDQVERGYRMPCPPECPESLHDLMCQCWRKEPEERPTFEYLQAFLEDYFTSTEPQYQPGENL
Nature of the assay: Src tyrosine kinase activity, poly E4Y / 32P-ATP phosphorylation assay. Conditions: compound at 15 μg/mL; read-out: % Inhibition at 15 μg/mL Src %. It counts as biochemical. The protocol: Recombinant human Src was expressed using the baculovirus-insect cell system and purified as published (Budde et al., 1993 and 2000).
The tyrosine kinase activity of Src, Csk and FGFr was determined using poly E4Y and ^32P-ATP. Briefly, enzymes were assayed in a reaction mixture consisting of 0.15 M EPPS-NaOH (pH 8.0) with 6 mM MgCl2, 0.2 mM γ^32P-ATP (0.2-0.4 mCi/μmol), 10% glycerol, 0.1% Triton X-100, and poly E4Y. Poly E4Y is a synthetic peptide whose phosphorylation is measured in this assay by the addition of the radioactively labeled phosphate from the ATP (Budde et al., 1995). […] When ATP was varied (0, 50, 100 and 250 μM), poly E4Y was kept constant at 150 μg/ml.
As for `Cc1ccc(C(=O)Nc2cc(NCc3cccc4ccccc34)c([N+](=O)[O-])cc2NC(=O)c2ccc(C)cc2)cc1` [Compound 71bb, N-{4-[(naphthalen-1-ylmethyl)-amino]-5-nitro-2-(4-toluoylamino)-phenyl}-4-toluamide], the inhibition at 15 µg/mL is 22%.

Consider `COc1ccc(Oc2ccc(NC(=O)c3ccc(C(F)(F)F)nc3)c(NS(=O)(=O)c3ccc(C)cc3)c2)cc1` [Compound 71c, N-[4-(4-methoxy-phenoxy)-2-(4-toluenesulfonylamino)-phenyl]-6-trifluoromethyl-nicotinamide], for which the inhibition at 15 µg/mL worked out at 5%.

On to `COc1ccc(Oc2cc(N)c(NS(=O)(=O)c3ccc(C)cc3)cc2[N+](=O)[O-])cc1` [Compound 71cc, N-[2-amino-4-(4-methoxy-phenoxy)-5-nitro-phenyl]-4-toluenesulfonamide], for which the inhibition at 15 µg/mL was 15%.

Take `COc1ccc(Oc2cc(N)c(NS(=O)(=O)c3ccc(C)cc3)cc2C(F)(F)F)cc1` [Compound 71ee, N-[2-amino-4-(4-methoxy-phenoxy)-5-trifluoromethyl-phenyl]-4-toluenesulfonamide]: the inhibition at 15 µg/mL was determined as 21%.

`COc1ccc(OCc2ccc(CNC(=O)c3ccc(C)cc3)c(NS(=O)(=O)c3ccc(C)cc3)c2)cc1` [Compound 71ff, N-[4-(4-methoxy-phenoxymethyl)-2-(4-toluenesulfonylamino)-benzyl]-4-toluamide]: the inhibition at 15 µg/mL was 4%.

In the case of `COc1ccc(Oc2ccc(NCc3ccc4ccccc4n3)c(NS(=O)(=O)c3ccc(C)cc3)c2)cc1` [Compound 71g, N-{5-(4-methoxy-phenoxy)-2-[(quinolin-2-ylmethyl)-amino]-phenyl}-4-toluenesulfonamide], the inhibition at 15 µg/mL turned out to be 10%.

Consider `COc1ccc(Oc2cc(NS(=O)(=O)c3ccc(C)cc3)c(N)cc2C(F)(F)F)cc1` [Compound 71gg, N-[2-amino-5-(4-methoxy-phenoxy)-4-trifluoromethyl-phenyl]-4-toluenesulfonamide], for which the inhibition at 15 µg/mL came to 19%.

In the case of `COc1ccc(Oc2ccc(NS(=O)(=O)c3ccc(C)cc3)c(NC(=O)c3cnc(C)cn3)c2)cc1` [Compound 71h, N-[5-(4-methoxy-phenoxy)-2-(4-toluenesulfonylamino)-phenyl]-5-methyl-pyrazine-2-carboxamide], the inhibition at 15 µg/mL came out at 0%.

With `COc1ccc(Oc2ccc(NS(=O)(=O)c3ccc(C)cc3)c(NCc3ccc(C)cc3)c2)cc1` [Compound 71hh, N-[4-(4-methoxy-phenoxy)-2-(4-methyl-benzylamino)-phenyl]-4-toluenesulfonamide], the inhibition at 15 µg/mL came to 23%.

On to `COc1ccc(Oc2ccc(N)c(CNS(=O)(=O)c3ccc(C)cc3)c2)cc1` [Compound 71i, N-[2-amino-5-(4-methoxy-phenoxy)-benzyl]-4-toluenesulfonamide], for which the inhibition at 15 µg/mL was found to be 13%.

In the case of `COc1ccc(Oc2ccc(NS(=O)(=O)c3ccc(C)cc3)c(NC(=O)NS(=O)(=O)c3ccc(C)cc3)c2)cc1` [Compound 71ii, N-{4-(4-methoxy-phenoxy)-2-[3-(4-toluenesulfonyl)-ureido]-phenyl}-4-toluenesulfonamide], the inhibition at 15 µg/mL worked out at 21%.

Consider `COc1ccc(Oc2ccc(NCc3ccc(C)cc3)c(NS(=O)(=O)c3ccc(C)cc3)c2)cc1` [Compound 71jj, N-[5-(4-methoxy-phenoxy)-2-(4-methyl-benzylamino)-phenyl]-4-toluenesulfonamide], for which the inhibition at 15 µg/mL turned out to be 19%.

Take `Cc1ccc(S(=O)(=O)Nc2cc(SCc3ccccc3Cl)ccc2N)cc1` [Compound 71kk, N-[2-amino-5-(2-chloro-benzylsulfanyl)-phenyl]-4-toluenesulfonamide]: the inhibition at 15 µg/mL was found to be 29%.

As to `Nc1cc(SCc2ccccc2Cl)c([N+](=O)[O-])cc1NS(=O)(=O)c1ccc(Cl)c2nonc12` [Compound 71ll, N-[2-amino-4-(2-chloro-benzylsulfanyl)-5-nitro-phenyl]-7-chloro-benzo[1,2,5]oxadiazole-4-sulfonamide], the inhibition at 15 µg/mL stood at 26%.

In the case of `CCc1ccc(NS(=O)(=O)c2ccc(OC)cc2NS(=O)(=O)c2ccc(C)cc2)cc1` [Compound 71mm, N-(4-ethyl-phenyl)-4-methoxy-2-(4-toluenesulfonylamino)-benzenesulfonamide], the inhibition at 15 µg/mL was found to be 19%.

In the case of `Cc1ccc(S(=O)(=O)Nc2ccc(S(=O)(=O)Cc3ccccc3Cl)cc2NS(=O)(=O)c2ccc(C)cc2)cc1` [Compound 71nn, N-[4-(2-chloro-phenylmethanesulfonyl)-2-(4-toluenesulfonylamino)-phenyl]-4-toluenesulfonamide], the inhibition at 15 µg/mL was found to be 46%.

For the compound `COc1ccc(Oc2ccc(NC(=O)Cc3ccccc3)c(NS(=O)(=O)c3ccc(C)cc3)c2)cc1` [Compound 71s, N-[4-(4-methoxy-phenoxy)-2-(4-toluenesulfonylamino)-phenyl]-2-phenyl-acetamide], the inhibition at 15 µg/mL was 10%.

As to `COc1ccc(Oc2ccc(N)c(N(C)S(=O)(=O)c3ccc(C)cc3)c2)cc1` [Compound 71t, N-[2-amino-5-(4-methoxy-phenoxy)-phenyl]-N-methyl-4-toluenesulfonamide], the inhibition at 15 µg/mL is 0%.

On to `COc1ccc(Oc2ccc(NS(=O)(=O)c3ccc(C)cc3)c(N=Cc3ccc4ccccc4n3)c2)cc1` [Compound 71u, N-{4-(4-methoxy-phenoxy)-2-[(quinolin-2-ylmethylene)-amino]-phenyl}-4-toluenesulfonamide], for which the inhibition at 15 µg/mL worked out at 6%.

`COc1ccc(OCc2ccc(C(N)=O)c(NS(=O)(=O)c3ccc(C)cc3)c2)cc1` [Compound 71v, 4-(4-methoxy-phenoxymethyl)-2-(4-toluenesulfonylamino)-benzamide]: the inhibition at 15 µg/mL was determined as 10%.

With `COc1ccc(OCc2ccc(CN)c(NS(=O)(=O)c3ccc(C)cc3)c2)cc1` [Compound 71w, N-[2-aminomethyl-5-(4-methoxy-phenoxymethyl)-phenyl]-4-toluenesulfonamide], the inhibition at 15 µg/mL is 9%.

For the compound `COc1ccc(OCc2ccc(CNS(C)(=O)=O)c(NS(=O)(=O)c3ccc4cc(C)ccc4c3)c2)cc1` [Compound 71x, N-[2-(methanesulfonylamino-methyl)-5-(4-methoxy-phenoxymethyl)-phenyl]-6-methyl-naphthalene-2-sulfonamide], the inhibition at 15 µg/mL came out at 20%.

As for `Cc1ccc(C(=O)Nc2cc(N3CCOCC3)c([N+](=O)[O-])cc2NC(=O)c2ccc(C)cc2)cc1` [Compound 71y, N-(4-morpholin-4-yl-5-nitro-2-(4-toluoylamino)-phenyl)-4-toluamide], the inhibition at 15 µg/mL was 14%.

Staying with this assay, now noted: poly E4Y / 32P-ATP; Formula IV compounds.
Consider `COc1ccc(Oc2ccc(NCc3ccc(C#N)cc3)c(NS(=O)(=O)c3ccc(C)cc3)c2)cc1` [Compound 71d, N-[2-(4-cyano-benzylamino)-5-(4-methoxy-phenoxy)-phenyl]-4-toluenesulfonamide], for which the 50% inhibitory concentration (IC50) worked out at 557 µM.

On to `COc1ccc(Oc2ccc(NS(=O)(=O)c3ccc(C)cc3)c(N(C)S(=O)(=O)c3ccc(C)cc3)c2)cc1` [Compound 71dd, N-[4-(4-methoxy-phenoxy)-2-(4-toluenesulfonyl-methyl-amino)-phenyl]-4-toluenesulfonamide], for which the IC50 was 172 µM.

As for `COc1ccc(Oc2ccc(NCc3ccc(NC(C)=O)cc3)c(NS(=O)(=O)c3ccc(C)cc3)c2)cc1` [Compound 71e, N-(4-{[4-(4-methoxy-phenoxy)-2-(4-toluenesulfonylamino)-phenylamino]-methyl}-phenyl)-acetamide], the IC50 is 203 µM.

Regarding `COc1ccc(Oc2ccc(NCc3cc4ccccc4o3)c(NS(=O)(=O)c3ccc(C)cc3)c2)cc1` [Compound 71f, N-[2-[(benzofuran-2-ylmethyl)-amino]-5-(4-methoxy-phenoxy)-phenyl]-4-toluenesulfonamide], the IC50 is 627 µM.

As to `COc1ccc(Oc2ccc(NS(=O)(=O)c3ccc(C)cc3)c(N)c2)cc1` [Compound 71l, N-[2-amino-4-(4-methoxy-phenoxy)-phenyl]-4-toluenesulfonamide], the IC50 amounted to 62 µM.

For `COc1ccc(Oc2ccc(NS(=O)(=O)c3ccc(C)cc3)c(CNS(=O)(=O)c3ccc(C)cc3)c2)cc1` [Compound 71m, N-[4-(4-methoxy-phenoxy)-2-(4-toluenesulfonylamino-methyl)-phenyl]-4-toluenesulfonamide], the concentration for half-maximal inhibition (IC50) was 136 µM.

For the compound `COc1ccc(Oc2ccc(NS(=O)(=O)c3ccc(C)cc3)c(CN)c2)cc1` [Compound 71n, N-[2-aminomethyl-4-(4-methoxy-phenoxy)-phenyl]-4-toluenesulfonamide], the IC50 was determined as 1300 µM.

`Cc1ccc(S(=O)(=O)Nc2ccc(NC(=O)c3ccccc3)cc2N(C(=O)c2ccccc2)S(=O)(=O)c2ccc(C)cc2)cc1` [Compound 71o, N-[3-[benzoyl-(4-toluenesulfonyl)-amino]-4-(4-toluenesulfonylamino)-phenyl]-benzamide]: the IC50 was determined as 39 µM.

With `COc1ccc(Oc2ccc(NS(=O)(=O)c3ccc(C)cc3)c(CNC(=O)c3ccc(C)cc3)c2)cc1` [Compound 71p, N-[5-(4-methoxy-phenoxy)-2-(4-toluenesulfonylamino)-benzyl]-4-toluamide], the IC50 is 108 µM.

As to `COc1ccc(Oc2ccc(NS(=O)(=O)c3ccc(C)cc3)c(NC(=O)c3ccc(C)cc3)c2)cc1` [Compound 71q, N-[5-(4-methoxy-phenoxy)-2-(4-toluenesulfonylamino)-phenyl]-4-toluamide], the IC50 came to 99 µM.

Consider `COc1ccc(Oc2ccc(NC(=O)c3ccc(C)cc3)c(NS(=O)(=O)c3ccc(C)cc3)c2)cc1` [Compound 71r, N-[4-(4-methoxy-phenoxy)-2-(4-toluenesulfonylamino)-phenyl]-4-toluamide], for which the IC50 was 159 µM.

The term IC50 denotes the concentration needed to halve the response being measured.
